Source: ChEMBL document CHEMBL1250443, “Microarray-based method for monitoring yeast overexpression strains reveals small-molecule targets in TOR pathway” (Nat Chem Biol, 2006)

Key:
[1] = Inhibition of TOR signaling in wild-type Saccharomyces cerevisiae transformed with overexpression plasmids assessed as increased YDL025C gene expression by microarray
[2] = Inhibition of TOR signaling in wild-type Saccharomyces cerevisiae transformed with overexpression plasmids assessed as increased YLR346C gene expression by microarray
[3] = Inhibition of TOR signaling in wild-type Saccharomyces cerevisiae transformed with overexpression plasmids assessed as decreased APL4 gene expression by microarray
[4] = Inhibition of TOR signaling in wild-type Saccharomyces cerevisiae transformed with overexpression plasmids assessed as decreased ATX2 gene expression by microarray
[5] = Inhibition of TOR signaling in wild-type Saccharomyces cerevisiae transformed with overexpression plasmids assessed as increased FBP1 gene expression by microarray
Saccharomyces cerevisiae [6] = experiment: Decrease of RIM11 gene expression in wild-type Saccharomyces cerevisiae transformed with overexpression plasmids by microarray; type: functional
[7] = Inhibition of TOR signaling in wild-type Saccharomyces cerevisiae transformed with overexpression plasmids assessed as decreased VTI1 gene expression by microarray
[8] = Inhibition of TOR signaling in wild-type Saccharomyces cerevisiae transformed with overexpression plasmids assessed as decreased YFL054C gene expression by microarray
[9] = Inhibition of TOR signaling in wild-type Saccharomyces cerevisiae transformed with overexpression plasmids assessed as decreased YPL260W gene expression by microarray
Saccharomyces cerevisiae [10] = experiment: Increase of FMP38 gene expression in wild-type Saccharomyces cerevisiae transformed with overexpression plasmids by microarray; type: functional
Saccharomyces cerevisiae [11] = experiment: Decrease of SGN1 gene expression in wild-type Saccharomyces cerevisiae transformed with overexpression plasmids by microarray; type: functional
[12] = Inhibition of TOR signaling in wild-type Saccharomyces cerevisiae transformed with overexpression plasmids assessed as decreased GIP3 gene expression by microarray
[13] = Inhibition of TOR signaling in wild-type Saccharomyces cerevisiae transformed with overexpression plasmids assessed as increased YFL030W gene expression by microarray
[14] = Inhibition of TOR signaling in wild-type Saccharomyces cerevisiae transformed with overexpression plasmids assessed as increased BRE1 gene expression by microarray
[15] = Inhibition of TOR signaling in wild-type Saccharomyces cerevisiae transformed with overexpression plasmids assessed as increased SRP72 gene expression by microarray
Saccharomyces cerevisiae [16] = experiment: Decrease of YDR222W gene expression in wild-type Saccharomyces cerevisiae transformed with overexpression plasmids by microarray; type: functional
Saccharomyces cerevisiae [17] = experiment: Decrease of FET4 gene expression in wild-type Saccharomyces cerevisiae transformed with overexpression plasmids by microarray; type: functional
[18] = Inhibition of TOR signaling in wild-type Saccharomyces cerevisiae transformed with overexpression plasmids assessed as decreased SET4 gene expression by microarray
[19] = Inhibition of TOR signaling in wild-type Saccharomyces cerevisiae transformed with overexpression plasmids assessed as increased NOG1 gene expression by microarray
[20] = Inhibition of TOR signaling in wild-type Saccharomyces cerevisiae transformed with overexpression plasmids assessed as increased APN2 gene expression by microarray
[21] = Inhibition of TOR signaling in wild-type Saccharomyces cerevisiae transformed with overexpression plasmids assessed as increased UTP8 gene expression by microarray
[22] = Inhibition of TOR signaling in wild-type Saccharomyces cerevisiae transformed with overexpression plasmids assessed as increased IML2 gene expression by microarray
[23] = Inhibition of TOR signaling in wild-type Saccharomyces cerevisiae transformed with overexpression plasmids assessed as increased YDL063C gene expression by microarray
[24] = Inhibition of TOR signaling in wild-type Saccharomyces cerevisiae transformed with overexpression plasmids assessed as decreased YDL186W gene expression by microarray
[25] = Inhibition of TOR signaling in wild-type Saccharomyces cerevisiae transformed with overexpression plasmids assessed as increased NCL1 gene expression by microarray
[26] = Inhibition of TOR signaling in wild-type Saccharomyces cerevisiae transformed with overexpression plasmids assessed as increased THI21 gene expression by microarray
[27] = Inhibition of TOR signaling in wild-type Saccharomyces cerevisiae transformed with overexpression plasmids assessed as decreased YNL058C gene expression by microarray
[28] = Inhibition of TOR signaling in wild-type Saccharomyces cerevisiae transformed with overexpression plasmids assessed as increased YOR220W gene expression by microarray
[29] = Inhibition of TOR signaling in wild-type Saccharomyces cerevisiae transformed with overexpression plasmids assessed as decreased PUT4 gene expression by microarray
[30] = Inhibition of TOR signaling in wild-type Saccharomyces cerevisiae transformed with overexpression plasmids assessed as increased VID22 gene expression by microarray
[31] = Inhibition of TOR signaling in wild-type Saccharomyces cerevisiae transformed with overexpression plasmids assessed as decreased FUS3 gene expression by microarray
[32] = Inhibition of TOR signaling in wild-type Saccharomyces cerevisiae transformed with overexpression plasmids assessed as decreased CDC42 gene expression by microarray
[33] = Inhibition of TOR signaling in wild-type Saccharomyces cerevisiae transformed with overexpression plasmids assessed as decreased YPL264C gene expression by microarray
[34] = Inhibition of TOR signaling in wild-type Saccharomyces cerevisiae transformed with overexpression plasmids assessed as increased HSP104 gene expression by microarray
[35] = Inhibition of TOR signaling in wild-type Saccharomyces cerevisiae transformed with overexpression plasmids assessed as decreased HSD1 gene expression by microarray
[36] = Inhibition of TOR signaling in wild-type Saccharomyces cerevisiae transformed with overexpression plasmids assessed as increased WHI4 gene expression by microarray
[37] = Inhibition of TOR signaling in wild-type Saccharomyces cerevisiae transformed with overexpression plasmids assessed as decreased EFR3 gene expression by microarray
[38] = Inhibition of TOR signaling in wild-type Saccharomyces cerevisiae transformed with overexpression plasmids assessed as decreased SUT2 gene expression by microarray
[39] = Inhibition of TOR signaling in wild-type Saccharomyces cerevisiae transformed with overexpression plasmids assessed as decreased YCL036W gene expression by microarray
Saccharomyces cerevisiae [40] = experiment: Decrease of YKR75C gene expression in wild-type Saccharomyces cerevisiae transformed with overexpression plasmids by microarray; type: functional
Saccharomyces cerevisiae [41] = experiment: Increase of GUF1 gene expression in wild-type Saccharomyces cerevisiae transformed with overexpression plasmids by microarray; type: functional
[42] = Inhibition of TOR signaling in wild-type Saccharomyces cerevisiae transformed with overexpression plasmids assessed as increased YOR042W gene expression by microarray
[43] = Inhibition of TOR signaling in wild-type Saccharomyces cerevisiae transformed with overexpression plasmids assessed as increased STM1 gene expression by microarray
[44] = Inhibition of TOR signaling in wild-type Saccharomyces cerevisiae transformed with overexpression plasmids assessed as increased SSE1 gene expression by microarray
[45] = Inhibition of TOR signaling in wild-type Saccharomyces cerevisiae transformed with overexpression plasmids assessed as decreased HOL1 gene expression by microarray

fold change (FC) [1]: 2.5
fold change (FC) [2]: 2.7
fold change (FC) [3]: -2.7
fold change (FC) [4]: -2
fold change (FC) [5]: 2.1
fold change (FC) [7]: -2.8
fold change (FC) [8]: -2.5
fold change (FC) [9]: -2
fold change (FC) [12]: -2.3
fold change (FC) [13]: 3.2
fold change (FC) [14]: 4.4
fold change (FC) [15]: 3.4
fold change (FC) [18]: -2.2
fold change (FC) [19]: 2.9
fold change (FC) [20]: 2.1
fold change (FC) [21]: 2.6
fold change (FC) [22]: 24.4
fold change (FC) [23]: 2.5
fold change (FC) [24]: -3.3
fold change (FC) [25]: 7.4
fold change (FC) [26]: 2.2
fold change (FC) [27]: -2.1
fold change (FC) [28]: 3.2
fold change (FC) [29]: -3.1
fold change (FC) [30]: 2.3
fold change (FC) [31]: -3.2
fold change (FC) [32]: -2
fold change (FC) [33]: -3.2
fold change (FC) [34]: 6.3
fold change (FC) [35]: -4.5
fold change (FC) [36]: 3.4
fold change (FC) [37]: -3.1
fold change (FC) [38]: -3.8
fold change (FC) [39]: -2.1
fold change (FC) [42]: 2.7
fold change (FC) [43]: 5.7
fold change (FC) [44]: 11.4
fold change (FC) [45]: -4.5
Compound: CO[C@H]1C[C@@H]2CC[C@@H](C)[C@@](O)(O2)C(=O)C(=O)N2CCCC[C@H]2C(=O)O[C@H]([C@H](C)C[C@@H]2CC[C@@H](O)[C@H](OC)C2)CC(=O)[C@H](C)/C=C(\C)[C@@H](O)[C@@H](OC)C(=O)[C@H](C)C[C@H](C)/C=C/C=C/C=C/1C [SIROLIMUS]
fold change (FC) (Saccharomyces cerevisiae [6]): 2.9
fold change (FC) (Saccharomyces cerevisiae [10]): -3.2
fold change (FC) (Saccharomyces cerevisiae [11]): -2.1
fold change (FC) (Saccharomyces cerevisiae [16]): 5
fold change (FC) (Saccharomyces cerevisiae [17]): -5.1
fold change (FC) (Saccharomyces cerevisiae [40]): -2.5
fold change (FC) (Saccharomyces cerevisiae [41]): -3.1
